Where only a bound is given, the exact number is not on record here.

We go through 12 compounds from US8664220B2, “Polycyclic compounds as lysophosphatidic acid receptor antagonists” (Amira Pharmaceuticals, Inc., priority 2009, dated 2014).

In the test the target is T1, human LPA1 (Homo sapiens, UniProt Q92633).
T1 construct: the full-length cDNA for human LPA1 was obtained by PCR of the reverse transcription reaction; expressed in transfected cells
The experiment in a line: LPA1 calcium flux assay. It counts as cell-based. The note with it: human LPA1 expressing CHO cells, stimulated with 10 nM LPA; read-out: HLPA1 Ca Flux IC50. How it is done: Establishment of a CHO Cell Line Stably Expressing Human LPA1
A 1.1 kb cDNA encoding the human LPA1 receptor was cloned from human lung.
Human lung RNA (Clontech Laboratories, Inc. USA) was reverse transcribed using the RETROscript kit (Ambion, Inc.) and the full-length cDNA for human LPA1 was obtained by PCR of the reverse transcription reaction. The nucleotide sequence of the cloned human LPA1 was determined by sequencing and confirmed to be identical to the published human LPA1 sequence (An et al. Biochem. Biophys. Res. Commun. 231:619 (1997). The cDNA was cloned into the pcDNA5/FRT expression plasmid and transfected in CHO cells using lipofectamine 2000 (Invitrogen Corp., USA). Clones stably expressing human LPA1 were selected using hygromycin and identified as cells that show Ca-influx in response to LPA.
LPA1 and LPA3 Calcium Flux Assays
Human LPA1 or LPA3 expressing CHO cells are seeded at 20,000-45,000 cells per well in a 96-well poly-D-lysine coated plate one or two days before the assay. Prior to the assay, the cells are washed once with PBS and then cultured in serum-free media overnight. On the day of the assay, a calcium indicator dye (Calcium 4, Molecular Devices) in assay buffer (HBSS with Ca^2+ and Mg^2+ and containing 20 mM Hepes and 0.3% fatty-acid free human serum albumin) is added to each well and incubation continued for 1 hour at 37° C. 10 μl of test compounds in 2.5% DMSO are added to the cells and incubation continued at room temperature for 30 minutes. Cells are the stimulated by the addition of 10 nM LPA and intracellular Ca^2+ measured using the Flexstation 3 (Molecular Devices). IC50s are determined using Graphpad prism analysis of drug titration curves.
On the technique in general: Calcium assays in cells follow changes in intracellular calcium, usually with a dye or a luminescent sensor.

T1 sequence (Q92633 whole entry): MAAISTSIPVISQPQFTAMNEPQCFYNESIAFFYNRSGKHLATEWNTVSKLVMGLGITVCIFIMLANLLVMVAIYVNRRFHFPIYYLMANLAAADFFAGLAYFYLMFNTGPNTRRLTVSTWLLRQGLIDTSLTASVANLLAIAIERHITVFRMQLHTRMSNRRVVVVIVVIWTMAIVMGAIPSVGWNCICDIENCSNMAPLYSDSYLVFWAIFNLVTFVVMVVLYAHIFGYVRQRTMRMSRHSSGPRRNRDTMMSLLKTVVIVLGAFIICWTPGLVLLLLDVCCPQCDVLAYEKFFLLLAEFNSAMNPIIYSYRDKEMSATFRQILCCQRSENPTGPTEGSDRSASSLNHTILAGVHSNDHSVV

On to `Cc1noc(-c2ccc(-c3ccc(C4(C(=O)O)CC4)cc3)cc2)c1Nc1cccc(N(C)c2ccccc2)c1` [Compound 1-106, 1-(4′-{3-Methyl-4-[3-(methyl-phenyl-amino)-phenylamino]-isoxazol-5-yl}-biphenyl-4-yl)-cyclopropanecarboxylic acid], for which the IC50 is < 0.3 µM.
The figure for `Cc1noc(-c2ccc(-c3ccc(C4(C(=O)O)CC4)cc3)cc2)c1Nc1cncc(-c2ccccc2Cl)c1` [Compound 1-113, 1-(4′-{4-[5-(2-Chloro-phenyl)-pyridin-3-ylamino]-3-methyl-isoxazol-5-yl}-biphenyl-4-yl)-cyclopropanecarboxylic acid] is < 0.3 µM; for `COc1ncccc1-c1cccc(Nc2c(C)noc2-c2ccc(-c3ccc(C4(C(=O)O)CC4)cc3)cc2)n1` [Compound 1-97, 1-{4′-[4-(2′-Methoxy-[2,3′]bipyridinyl-6-ylamino)-3-methyl-isoxazol-5-yl]-biphenyl-4-yl}-cyclopropanecarboxylic acid] it is < 0.3 µM.
With `Cc1noc(-c2ccc(-c3ccc(C4(CC(=O)O)CC4)cc3)cc2)c1NC(C)c1cc(-c2ccccc2)no1` (single isomer, unassigned) [Compound 1-43, [1-(4′-{3-Methyl-4-[1-(3-phenyl-isoxazol-5-yl)-ethylamino]-isoxazol-5-yl}-biphenyl-4-yl)-cyclopropyl]-acetic acid], the IC50 was < 0.3 µM.
Under `Cc1noc(-c2ccc(-c3ccc(C4(C(=O)O)CC4)cc3)cc2)c1C(=O)N1CCN(S(=O)(=O)c2ccc(Cl)c(Cl)c2)CC1` [Compound 1-3, 1-(4′-{4-[4-(3,4-Dichloro-benzenesulfonyl)-piperazine-1-carbonyl]-3-methyl-isoxazol-5-yl}-biphenyl-4-yl)-cyclopropanecarboxylic acid] stands 1 to 50 µM.
As to `Cc1noc(-c2ccc(-c3ccc(C4(C(=O)O)CC4)cc3)cc2)c1Cn1nnc(-c2ccccc2)n1` [Compound 1-21, 1-{4′-[3-Methyl-4-(5-phenyl-tetrazol-2-ylmethyl)-isoxazol-5-yl]-biphenyl-4-yl}-cyclopropanecarboxylic acid], the half-maximal inhibitory concentration (IC50) was < 0.3 µM.
Consider `Cc1noc(-c2ccc(-c3ccc(C4(C(=O)O)CC4)cc3)cc2)c1Nc1cccc(-c2cccc(F)c2C)n1` [Compound 1-156, 1-(4′-{4-[6-(3-Fluoro-2-methyl-phenyl)-pyridin-2-ylamino]-3-methyl-isoxazol-5-yl}-biphenyl-4-yl)-cyclopropanecarboxylic acid], for which the IC50 is < 0.3 µM.
Under `Cc1noc(-c2ccc(-c3ccc(C4(C(=O)O)CC4)cc3)cc2)c1Nc1cccc(-c2ccccc2C(F)(F)F)n1` [Compound 1-96, 1-(4′-{3-methyl-4-[6-(2-trifluoromethyl-phenyl)-pyridin-2-ylamino]-isoxazol-5-yl}-biphenyl-4-yl)-cyclopropanecarboxylic acid] stands < 0.3 µM; under `Cc1noc(-c2ccc(-c3ccc(C4(C(=O)O)CC4)cc3)cc2)c1Nc1cccc(-c2ccccc2)n1` [Compound 1-68, 1-{4′-[3-Methyl-4-(6-phenyl-pyridin-2-ylamino)-isoxazol-5-yl]-biphenyl-4-yl}-cyclopropanecarboxylic acid], < 0.3 µM; under `Cc1noc(-c2ccc(-c3ccc(C4(C(=O)O)CC4)cc3)cc2)c1C1OC1CCc1ccccc1` (stereo not drawn) [Compound 1-4, 1-{4′-[3-Methyl-4-(3-phenethyl-oxiranyl)-isoxazol-5-yl]-biphenyl-4-yl}-cyclopropanecarboxylic acid], < 0.3 µM.
Turning to `Cc1noc(-c2ccc(-c3ccc(C4(CC(=O)O)CC4)cc3)cc2)c1NC1CCN(Cc2ccccc2)CC1` [Compound 1-37, (1-{4′-[4-(1-Benzyl-piperidin-4-ylamino)-3-methyl-isoxazol-5-yl]-biphenyl-4-yl}-cyclopropyl)-acetic acid], the IC50 lay in the range of 1 to 50 µM.
The figure for `COc1ccc(-c2cccc(Nc3c(C)noc3-c3ccc(-c4ccc(C5(C(=O)O)CC5)cc4)cc3)n2)cn1` [Compound 1-98, 1-{4′-[4-(6′-Methoxy-[2,3′]bipyridinyl-6-ylamino)-3-methyl-isoxazol-5-yl]-biphenyl-4-yl}-cyclopropanecarboxylic acid] is < 0.3 µM.

By IC50 is commonly meant the concentration that gives 50% inhibition.
